Experimental data: patent publication US20250051327A1, “MALT-1 MODULATORS” (EXSCIENTIA AI LIMITED, priority 2020, published 2025)
Where a name gives a salt, the structure may show the parent alone.

Tests used:
[1] = biological target: Recombinant human MALT-1 (amino acids 340-824) (Homo sapiens (Human), UniProt Q9UDY8); assay: MALT-1 inhibition assay (fluorogenic substrate Ac-LRSR-Rh110-DP); type: biochemical; details: recombinant human MALT-1, substrate Ac-LRSR-Rh110-DP
Summary of the method: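 MALT-1 at 3 nM final was reacted with 10 μM Ac-LRSR-Rh110-DP, with substrate addition starting the reaction. Incubation ran 60 minutes at 25° C in the dark. Percent inhibition from fluorescence across doses was fitted to a 4-parameter logistic to give IC50.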

[2] = tested on: IL-2 secretion by human effector memory T cells (TEM); assay: Effector memory T cells IL-2 release assay; type: cell-based; details: T-cell; human CD4+ effector memory T cells, CD3/CD28 bead stimulation, 24 h; read-out: CD4TC IL2 IC50
Summary of the method: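 Human CD4+ effector memory T cells from healthy-donor buffy coats were stimulated with anti-CD3/CD28 Dynabeads and exposed to 10 semi-log compound doses (0.1% DMSO) for 24 h at 37 °C. Supernatant IL-2 was measured by HTRF, and IC50 came from a 4-parameter logistic fit to maximal IL-2. Viability was checked by flow cytometry.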

Chain of Recombinant human MALT-1 (amino acids 340-824) (Q9UDY8 340-824): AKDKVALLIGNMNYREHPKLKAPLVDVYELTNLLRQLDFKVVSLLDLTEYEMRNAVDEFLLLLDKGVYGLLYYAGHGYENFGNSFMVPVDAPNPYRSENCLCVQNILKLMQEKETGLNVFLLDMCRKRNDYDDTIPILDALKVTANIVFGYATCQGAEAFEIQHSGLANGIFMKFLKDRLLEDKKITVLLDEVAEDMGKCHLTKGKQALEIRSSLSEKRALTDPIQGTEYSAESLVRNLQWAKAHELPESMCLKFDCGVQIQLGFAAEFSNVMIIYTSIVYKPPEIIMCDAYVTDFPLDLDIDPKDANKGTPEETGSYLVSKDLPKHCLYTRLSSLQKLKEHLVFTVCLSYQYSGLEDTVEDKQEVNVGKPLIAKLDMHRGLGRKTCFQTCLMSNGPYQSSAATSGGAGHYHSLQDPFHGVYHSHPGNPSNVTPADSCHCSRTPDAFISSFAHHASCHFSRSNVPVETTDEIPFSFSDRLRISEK

| SMILES | IC50 [1] [nM] | IC50 [2] [nM] |
| --- | --- | --- |
| Cc1cc(N2CCCc3c2cnc2cc(Cl)nn32)ccc1[C@H](N(C)C(=O)C1CCS(=O)(=O)CC1)C(F)(F)F [CPD0072808, N-[(1S)-1-(4-{4-chloro-2,3,7,10-tetraazatricyclo[7.4.0.0^2,6]trideca-1(9),3,5,7-tetraen-10-yl}-2-methylphenyl)-2,2,2-trifluoroethyl]-N-methyl-1,1-dioxo-1λ^6-thiane-4-carboxamide] | 127 | 237 |
| COc1ccc2ncc(Nc3ccc([C@@H](N(C)C(=O)[C@H]4CC[S@@](=N)(=O)CC4)C(F)(F)F)cc3)c([C@H](C)OC)c2n1 (relative stereo) [CPD0077186, (1 rel-r,4rel-s)-1-imino-N-methyl-1-oxo-N-[(1R)-2,2,2-trifluoro-1-[4-({6-methoxy-4-[(1 rel-S)-1-methoxyethyl]-1,5-naphthyridin-3-yl}amino)phenyl]ethyl]-1λ^6-thiane-4-carboxamide] | 126 | 158 |
| CN1C[C@@H](C(=O)N(C)[C@@H](c2ccc(N3CCCc4c3cnc3cc(Cl)nn43)cc2)C(F)(F)F)CCC1=O (relative stereo) [CPD0073196, (3rel-S)-N-[(1S)-1-(4-{4-chloro-2,3,7,10-tetraazatricyclo[7.4.0.0^2,6]trideca-1(9),3,5,7-tetraen-10-yl}phenyl)-2,2,2-trifluoroethyl]-N,1-dimethyl-6-oxopiperidine-3-carboxamide] | 80 | 122 |
| CN(C(=O)C1C2CS(=O)(=O)CC21)[C@@H](c1ccc(N2CCCc3c2cnc2cc(Cl)nn32)cc1)C(F)(F)F (stereo partly drawn) [CPD0072801, N-[(1S)-1-(4-{4-chloro-2,3,7,10-tetraazatricyclo[7.4.0.0^2,6]trideca-1(9),3,5,7-tetraen-10-yl}phenyl)-2,2,2-trifluoroethyl]-N-methyl-3,3-dioxo-3λ^6-thiabicyclo[3.1.0]hexane-6-carboxamide] | 95 | 147 |
| COc1ccc2ncc(Nc3ccc([C@@H](N(C)C(=O)[C@H]4CC[S@](=N)(=O)CC4)C(F)(F)F)cc3)c([C@H](C)OC)c2n1 (relative stereo) [CPD0077187, (1 rel-s,4rel-s)-1-imino-N-methyl-1-oxo-N-[(1R)-2,2,2-trifluoro-1-[4-({6-methoxy-4-[(1 rel-S)-1-methoxyethyl]-1,5-naphthyridin-3-yl}amino)phenyl]ethyl]-1λ^6-thiane-4-carboxamide] | 117 | 209 |
| CN(C(=O)C1CCS(=O)(=O)CC1)[C@@H](c1ccc(N2CCCc3c2cnc2cc(F)nn32)cc1)C(F)(F)F [CPD0021664, N-methyl-1,1-dioxo-N-[(1S)-2,2,2-trifluoro-1-(4-{4-fluoro-2,3,7,10-tetraazatricyclo[7.4.0.0^2,6]trideca-1(9),3,5,7-tetraen-10-yl}phenyl)ethyl]-1λ^6-thiane-4-carboxamide] | 83 | 195 |
| CN(C(=O)[C@H]1C[C@H](S(C)(=O)=O)C1)[C@@H](c1ccc(N2CCCc3c2cnc2cc(Cl)nn32)cc1)C(F)(F)F [CPD0073501, trans-N-[(1S)-1-(4-{4-chloro-2,3,7,10-tetraazatricyclo[7.4.0.0^2,6]trideca-1(9),3,5,7-tetraen-10-yl}phenyl)-2,2,2-trifluoroethyl]-3-methanesulfonyl-N-methylcyclobutane-1-carboxamide] | 66 | 140 |
| COC(C)c1c(Nc2ccc([C@H](N(C)C(=O)C3CCS(=O)(=O)CC3)C(F)(F)F)cc2)cnn2cc(Cl)nc12 (stereo partly drawn) [CPD0072526, N-[(1S)-1-[4-[[2-chloro-8-(1-methoxyethyl)imidazo[1,2-b]pyridazin-7-yl]amino]phenyl]-2,2,2-trifluoro-ethyl]-N-methyl-1,1-dioxo-thiane-4-carboxamide] | 47 | 71 |
| Cc1scnc1C(=O)N(C)[C@@H](c1ccc(N2CCCc3c2cnc2cc(Cl)nn32)cc1)C(F)(F)F [CPD0019353, N-[(1S)-1-(4-{4-chloro-2,3,7,10-tetraazatricyclo[7.4.0.0^2,6]trideca-1(9),3,5,7-tetraen-10-yl}phenyl)-2,2,2-trifluoroethyl]-N,5-dimethyl-1,3-thiazole-4-carboxamide] | 582 | 271 |
| CN([C@@H](c1ccc(N2CCCc3c2cnc2cc(Cl)nn32)cc1)C(F)(F)F)S(C)(=O)=O [CPD0021581, N-[(1S)-1-(4-{4-chloro-2,3,7,10-tetraazatricyclo[7.4.0.0^2,6]trideca-1(9),3,5,7-tetraen-10-yl}phenyl)-2,2,2-trifluoroethyl]-N-methylmethanesulfonamide] | 370 | 538 |
| CNCC(=O)N1CC[C@H](C(=O)N(C)[C@@H](c2ccc(N3CCCc4c3cnc3cc(Cl)nn43)cc2)C(F)(F)F)C1 (relative stereo) [CPD0075880, (3 rel-R)—N-[(1S)-1-[4-(4-chloro-2,3,7,10-tetrazatricyclo[7.4.0.0^2,6]trideca-1(9),3,5,7-tetraen-10-yl)phenyl]-2,2,2-trifluoro-ethyl]-N-methyl-1-[2-(methylamino)acetyl]pyrrolidine-3-carboxamide hydrochloride] | 99 | 363 |
| COC[C@]1(C)CCN(c2ccc([C@H](N(C)C(=O)[C@H]3CC[S@](=N)(=O)CC3)C(F)(F)F)cc2)c2cnc3cc(Cl)nn3c21 (relative stereo) [CPD0073132, (1rel-r,4rel-r)-N-[(1S)-1-[4-[(13rel-R)-4-chloro-13-(methoxymethyl)-13-methyl-2,3,7,10-tetrazatricyclo[7.4.0.0^2,6]trideca-1(9),3,5,7-tetraen-10-yl]phenyl]-2,2,2-trifluoro-ethyl]-1-imino-N-methyl-1-oxo-1λ^6-thiane-4-carboxamide] | 101 | 150 |
| CCN(C(=O)C1CCS(=O)(=O)CC1)[C@@H](c1ccc(N2CCCc3c2cnc2cc(Cl)nn32)cc1)C(F)(F)F [CPD0073918, N-[(1S)-1-(4-{4-chloro-2,3,7,10-tetraazatricyclo[7.4.0.0^2,6]trideca-1(9),3,5,7-tetraen-10-yl}phenyl)-2,2,2-trifluoroethyl]-N-ethyl-1,1-dioxo-1λ^6-thiane-4-carboxamide] | 106 | 145 |
| CN(C(=O)[C@H]1C[C@@H]([S@+](C)(=N)[O-])C1)[C@@H](c1ccc(N2CCCc3c2cnc2cc(Cl)nn32)cc1)C(F)(F)F [CPD0073224, (1S,3s)-N-[(1S)-1-(4-{4-chloro-2,3,7,10-tetraazatricyclo[7.4.0.0^2,6]trideca-1(9),3,5,7-tetraen-10-yl}phenyl)-2,2,2-trifluoroethyl]-3-[(S)-imino(methyl)oxo-λ^6-sulfanyl]-N-methylcyclobutane-1-carboxamide] | 56 | 181 |
| O=C(N[C@@H](c1ccc(N2CCCc3c2cnc2cc(Cl)nn32)cc1)C(F)(F)F)C1CCS(=O)(=O)CC1 [CPD0021755, N-[(1S)-1-(4-{4-chloro-2,3,7,10-tetraazatricyclo[7.4.0.0^2,6]trideca-1(9),3,5,7-tetraen-10-yl}phenyl)-2,2,2-trifluoroethyl]-1,1-dioxo-1λ^e-thiane-4-carboxamide] | 433 | 845 |
| CN(C(=O)C1CCS(=O)(=O)CC1)[C@@H](c1ccc(N2CCCc3c2cnc2cc(Cl)nn32)cc1)C(C)(F)F [CPD0072803, N-[(1S)-1-(4-{4-chloro-2,3,7,10-tetraazatricyclo[7.4.0.0^2,6]trideca-1(9),3,5,7-tetraen-10-yl}phenyl)-2,2-difluoropropyl]-N-methyl-1,1-dioxo-1λ^6-thiane-4-carboxamide] | 322 | 1890 |
| COc1ccc2ncc(N(C)c3ccc([C@H](N(C)C(=O)C4CCS(=O)(=O)CC4)C(F)(F)F)cc3)cc2n1 [CPD0021585, N-methyl-1,1-dioxo-N-[(1S)-2,2,2-trifluoro-1-{4-[(6-methoxy-1,5-naphthyridin-3-yl)(methyl)amino]phenyl}ethyl]-1λ^6-thiane-4-carboxamide] | 863 | 1680 |
| CN(C(=O)[C@@H]1CCN(C(=O)CO)C1)[C@@H](c1ccc(N2CCCc3c2cnc2cc(Cl)nn32)cc1)C(F)(F)F (relative stereo) [CPD0073976, (3 rel-R)—N-[(1S)-1-(4-{4-chloro-2,3,7,10-tetraazatricyclo[7.4.0.0^2,6]trideca-1(9),3,5,7-tetraen-10-yl}phenyl)-2,2,2-trifluoroethyl]-1-(2-hydroxyacetyl)-N-methylpyrrolidine-3-carboxamide] | 57 | 149 |
| CN(C(=O)C1CC2(C1)CS(=O)(=O)C2)[C@@H](c1ccc(N2CCCc3c2cnc2cc(Cl)nn32)cc1)C(F)(F)F [CPD0072937, N-[(1S)-1-(4-{4-chloro-2,3,7,10-tetraazatricyclo[7.4.0.0^2,6]trideca-1(9),3,5,7-tetraen-10-yl}phenyl)-2,2,2-trifluoroethyl]-N-methyl-2,2-dioxo-2λ^6-thiaspiro[3.3]heptane-6-carboxamide] | 75 | 93 |
| CN(C(=O)C1CC(C(=O)O)C1)[C@@H](c1ccc(N2CCCc3c2cnc2cc(Cl)nn32)cc1)C(F)(F)F (stereo partly drawn) [CPD0072461] | 63 | 732 |
| COc1ccc2ncc(Nc3ccc([C@H](N(C)C(=O)[C@@H]4CCN(C(=O)CO)C4)C(F)(F)F)cc3)c([C@H](C)OC)c2n1 (relative stereo) [CPD0075883, (3 rel R)-1-(2-hydroxyacetyl)-N-methyl-N-[(1S)-2,2,2-trifluoro-1-[4-[[6-methoxy-4-[(1 rel S-1-methoxyethyl]-1,5-naphthyridin-3-yl]amino]phenyl]ethyl]pyrrolidine-3-carboxamide] | 52 | 47 |
